Reference: US20240398771A1, “TREATMENT OF SCLERODERMA AND RAYNAUD'S SYNDROME” (Aisa Pharma, Inc., priority 2023, published 2024)

What was measured:
participants with SSc-RP [1] = assay: Average duration of weekly RP attacks, all attacks (minutes); type: in vivo, human
Source text: (§1) The relevant metrics measured by this tool daily are: • Study medication • SSc-RP symptoms (Reporting an attack including duration of attack) • Severity of the attack considering all symptoms of the attack e.g. tingling, numbness, pain, color changes (VAS 0-10 cm scale) • Participant's location at the time of the attack (inside home/outside home) • Selecting symptoms experienced during the attack (tingling, numbness, pain, color changes, other) • Pain rating during the attack (11-point Likert scale) • The RCS based on how much difficulty participants had with Raynaud's today, how many attacks the participant had, and how long they lasted. Participants will also be asked to consider how much pain, numbness, or other symptoms the Raynaud's caused in fingers (including painful sores), and how much the Raynaud's alone affected the use of hands today (VAS 0-10 cm scale).
(§2) The absolute change in average duration of weekly RP attacks from baseline to the end of each dosing period was and will be a secondary outcome variable. The sponsor-developed participant-informed diary was and will be used to record data. Average duration of weekly RP attacks is defined as the total duration of RP attacks divided by total number of RP attacks within the last 7 days of each dosing period. Total duration of RP attacks during the last 7 days of screening period divided by the total number of RP attacks will be used as baseline for the analysis of all periods. The variable will be calculated similar to frequency data as before.

participants with SSc-RP [2] = assay: Average duration of weekly symptomatic RP attacks (minutes); type: in vivo, human; conditions: ITT Part A
Source text: as §1, §2

[3] = Excluding Outliers, ITT Population - Part A (Table B-6), last 7 days of dosing period
[4] = Excluding Outliers, ITT Population - Part A (Table B-6), last 7 days of screening period
[5] = ITT Population - Part A (Table B-5), last 7 days of dosing period
[6] = ITT Population - Part A (Table B-5), last 7 days of screening period
[7] = Excluding Outliers, Baseline RCS subgroup 2 (second half of Table B-4, stratum not given), last 7 days of dosing period
[8] = Excluding Outliers, Baseline RCS subgroup 2 (second half of Table B-4, stratum not given), last 7 days of screening period
[9] = Baseline RCS subgroup 2 (Table B-3, stratum not given), last 7 days of dosing period
[10] = Baseline RCS subgroup 2 (Table B-3, stratum not given), last 7 days of screening period

CN1CC(=O)N2[C@H](c3ccc4c(c3)OCO4)c3[nH]c4ccccc4c3C[C@@H]2C1=O [Tadalafil]
Average Duration of weekly RP attacks (All Attacks), Max (participants with SSc-RP [1]; [3]): 5.9, 5.9 minutes | Average Duration of weekly RP attacks (All Attacks), Min (participants with SSc-RP [1]; [3]): 5.9, 5.9 minutes | Average Duration of weekly RP attacks (All Attacks), Q1 (participants with SSc-RP [1]; [3]): 5.95, 5.95 minutes | Average duration of weekly RP attacks (All Attacks), Change from Baseline, Max (participants with SSc-RP [1]; [3]): −5.0, −5.0 minutes | Average duration of weekly RP attacks (All Attacks), Change from Baseline, Min (participants with SSc-RP [1]; [3]): −5.0, −5.0 minutes | Average duration of weekly RP attacks (All Attacks), Percent Change from Baseline, Max (participants with SSc-RP [1]; [3]): −45.6, −45.6% | Average duration of weekly RP attacks (All Attacks), Percent Change from Baseline, Min (participants with SSc-RP [1]; [3]): −45.6, −45.6% | Average duration of weekly RP attacks (All Attacks), Baseline, Max (participants with SSc-RP [1]; [4]): 10.9, 10.9 minutes | Average duration of weekly RP attacks (All Attacks), Baseline, Min (participants with SSc-RP [1]; [4]): 10.9, 10.9 minutes | Average duration of weekly RP attacks (All Attacks), Baseline, Q1 (participants with SSc-RP [1]; [4]): 10.92, 10.92 minutes | Average duration of weekly RP attacks (All Attacks), Baseline, Q3 (participants with SSc-RP [1]; [4]): 10.92, 10.92 minutes | Average Duration of weekly RP attacks (All Attacks) (participants with SSc-RP [1]; [5]): 5.9 min | Average Duration of weekly RP attacks (All Attacks), Max (participants with SSc-RP [1]; [5]): 818.6 min | Average Duration of weekly RP attacks (All Attacks), Q1 (participants with SSc-RP [1]; [5]): 5.95 min | Average Duration of weekly RP attacks (All Attacks), Q3 (participants with SSc-RP [1]; [5]): 818.57 min | Average duration of weekly RP attacks (All Attacks), Change from Baseline (participants with SSc-RP [1]; [5]): -5.0 min | Average duration of weekly RP attacks (All Attacks), Change from Baseline, Max (participants with SSc-RP [1]; [5]): 188.6 min | Average duration of weekly RP attacks (All Attacks), Change from Baseline, Mean (participants with SSc-RP [1]; [5]): 91.80 min | Average duration of weekly RP attacks (All Attacks), Change from Baseline, Median (participants with SSc-RP [1]; [5]): 91.80 min | Average duration of weekly RP attacks (All Attacks), Change from Baseline, Q3 (participants with SSc-RP [1]; [5]): 188.57 min | Average duration of weekly RP attacks (All Attacks), Percent Change from Baseline, Max (participants with SSc-RP [1]; [5]): 29.9% | Average duration of weekly RP attacks (All Attacks), Percent Change from Baseline, Mean (participants with SSc-RP [1]; [5]): −7.81% | Average duration of weekly RP attacks (All Attacks), Percent Change from Baseline, Median (participants with SSc-RP [1]; [5]): −7.81% | Average duration of weekly RP attacks (All Attacks), Percent Change from Baseline, Min (participants with SSc-RP [1]; [5]): −45.6% | Average duration of weekly RP attacks (All Attacks), Percent Change from Baseline, Q3 (participants with SSc-RP [1]; [5]): 29.93% | Average duration of weekly RP attacks (All Attacks), Baseline (participants with SSc-RP [1]; [6]): 10.9 min | Average duration of weekly RP attacks (All Attacks), Baseline, Max (participants with SSc-RP [1]; [6]): 630.0 min | Average duration of weekly RP attacks (All Attacks), Baseline, Q1 (participants with SSc-RP [1]; [6]): 10.92 min | Average duration of weekly RP attacks (All Attacks), Baseline, Q3 (participants with SSc-RP [1]; [6]): 630.00 min | Average Duration of weekly symptomatic RP attacks, Max (participants with SSc-RP [2]; [7]): 6.0, 6.0 minutes | Average Duration of weekly symptomatic RP attacks, Mean (participants with SSc-RP [2]; [7]): 6.00 min | Average Duration of weekly symptomatic RP attacks, Median (participants with SSc-RP [2]; [7]): 6.00 min | Average Duration of weekly symptomatic RP attacks, Min (participants with SSc-RP [2]; [7]): 6.0, 6.0 minutes | Average Duration of weekly symptomatic RP attacks, Q1 (participants with SSc-RP [2]; [7]): 6.00, 6.00 minutes | Average Duration of weekly symptomatic RP attacks, Q3 (participants with SSc-RP [2]; [7]): 6.00, 6.00 minutes | Average duration of weekly symptomatic RP attacks, Change from Baseline, Max (participants with SSc-RP [2]; [7]): −4.6, −4.6 minutes | Average duration of weekly symptomatic RP attacks, Change from Baseline, Mean (participants with SSc-RP [2]; [7]): -4.58 min | Average duration of weekly symptomatic RP attacks, Change from Baseline, Min (participants with SSc-RP [2]; [7]): −4.6, −4.6 minutes | Average duration of weekly symptomatic RP attacks, Change from Baseline, Q3 (participants with SSc-RP [2]; [7]): −4.58, −4.58 minutes | Average duration of weekly symptomatic RP attacks, Percent Change from Baseline, Max (participants with SSc-RP [2]; [7]): −43.3, −43.3% | Average duration of weekly symptomatic RP attacks, Percent Change from Baseline, Mean (participants with SSc-RP [2]; [7]): −43.31% | Average duration of weekly symptomatic RP attacks, Percent Change from Baseline, Min (participants with SSc-RP [2]; [7]): −43.3, −43.3% | Average duration of weekly symptomatic RP attacks, Percent Change from Baseline, Q3 (participants with SSc-RP [2]; [7]): −43.31, −43.31% | Average duration of weekly symptomatic RP attacks, Baseline, Max (participants with SSc-RP [2]; [8]): 10.6, 10.6 minutes | Average duration of weekly symptomatic RP attacks, Baseline, Mean (participants with SSc-RP [2]; [8]): 10.58 min | Average duration of weekly symptomatic RP attacks, Baseline, Median (participants with SSc-RP [2]; [8]): 10.58 min | Average duration of weekly symptomatic RP attacks, Baseline, Min (participants with SSc-RP [2]; [8]): 10.6, 10.6 minutes | Average duration of weekly symptomatic RP attacks, Baseline, Q1 (participants with SSc-RP [2]; [8]): 10.58, 10.58 minutes | Average duration of weekly symptomatic RP attacks, Baseline, Q3 (participants with SSc-RP [2]; [8]): 10.58, 10.58 minutes | Average Duration of weekly symptomatic RP attacks (participants with SSc-RP [2]; [9]): 6.0 min | Average Duration of weekly symptomatic RP attacks, Max (participants with SSc-RP [2]; [9]): 818.6 min | Average Duration of weekly symptomatic RP attacks, Q1 (participants with SSc-RP [2]; [9]): 6.00 min | Average Duration of weekly symptomatic RP attacks, Q3 (participants with SSc-RP [2]; [9]): 818.57 min | Average duration of weekly symptomatic RP attacks, Change from Baseline (participants with SSc-RP [2]; [9]): -4.6 min | Average duration of weekly symptomatic RP attacks, Change from Baseline, Max (participants with SSc-RP [2]; [9]): 286.1 min | Average duration of weekly symptomatic RP attacks, Change from Baseline, Q1 (participants with SSc-RP [2]; [9]): -4.58 min | Average duration of weekly symptomatic RP attacks, Change from Baseline, Q3 (participants with SSc-RP [2]; [9]): 286.07 min | Average duration of weekly symptomatic RP attacks, Percent Change from Baseline, Max (participants with SSc-RP [2]; [9]): 53.7% | Average duration of weekly symptomatic RP attacks, Percent Change from Baseline, Min (participants with SSc-RP [2]; [9]): −43.3% | Average duration of weekly symptomatic RP attacks, Percent Change from Baseline, Q1 (participants with SSc-RP [2]; [9]): −43.31% | Average duration of weekly symptomatic RP attacks, Percent Change from Baseline, Q3 (participants with SSc-RP [2]; [9]): 53.72% | Average duration of weekly symptomatic RP attacks, Baseline (participants with SSc-RP [2]; [10]): 10.6 min | Average duration of weekly symptomatic RP attacks, Baseline, Max (participants with SSc-RP [2]; [10]): 532.5 min | Average duration of weekly symptomatic RP attacks, Baseline, Mean (participants with SSc-RP [2]; [10]): 271.54 min | Average duration of weekly symptomatic RP attacks, Baseline, Median (participants with SSc-RP [2]; [10]): 271.54 min | Average duration of weekly symptomatic RP attacks, Baseline, Q1 (participants with SSc-RP [2]; [10]): 10.58 min | Average duration of weekly symptomatic RP attacks, Baseline, Q3 (participants with SSc-RP [2]; [10]): 532.50 min
